Data as given in BindingDB's records for PubMed 38171251 (Indian Institute of Technology (Banaras Hindu University)).
pIC50: −log10 of the molar value.

Test: Inhibition of Acetyl-CoA acetyltransferase (unknown origin)

Compound | pIC50
Cc1ccc(CNC2=Nc3ccccc3NC23CCCCC3)cc1 | 6.57
CC1CCC2(CC1)NC=CN=C2NCc1ccccc1Cl (stereo unspecified) | < 6.00
Clc1cccc(CNC2=Nc3ccccc3NC23CCNCC3)c1 | 7.66

The remaining lines, values ahead:

pIC50 | Compound
7.66 | Clc1ccccc1CNC1=Nc2ccccc2NC12CCNCC2
7.60 | Cc1ccccc1CNC1=Nc2ccccc2NC12CCNCC2
6.77 | CC1CCC2(CC1)Nc1ccccc1N=C2NCc1ccccc1Cl (stereo unspecified)
